Data set [1] can be described thus: Curing of a blue offset printing ink on white paper (maximum rate of passage, 80 W/cm mercury lamp). The following applies: for curing rate (m/min) for surface cure / curing rate (m/min) for through cure: blue offset ink 1.5 g/m^2 on white paper, 80 W/cm mercury lamp. As to the method:
Curing of a Blue Offset Printing Ink on White Paper
(§1) A photocurable blue offset printing ink is prepared in accordance with the following formulation: […]
(§2) The above components are grounded down to a stock paste. Portions of the stock paste are mixed with the photoinitiators indicated in the table (% by weight on the stock paste). The solubility of the initiator in the formulation is rated as good (+), acceptable (±) or bad (−) and the results shown in Table 1.
The blue printing ink thus obtained is applied with 1.5 g/m^2 (˜1.5 μm thickness) on white paper using a Prüfbau laboratory printing equipment. The samples are exposed in an irradiation apparatus with a 80 W/cm mercury lamp (IST). The rate of passage of the sample through the irradiation apparatus is thereby increased continuously until adequate curing no longer occurs. The odor of the cured film is rated on a scale from 1 (odorless) to 3 (strong odor).

A short description of data set [2]: Solubility of the initiator in the blue flexo printing ink formulation. The conditions noted are these: photoinitiator conc 6.0 % by weight on the stock paste. The class given is physicochemical. Details: key: good (+); acceptable (±); bad (−). On the procedure:
(§3) A photocurable blue flexo printing ink is prepared in accordance with the following formulation: […]
26.9 g of IRR 440 (flexo basic resin)
19.0 g of OTA 480 (acrylated trifunctional resin, UCB, Belgium)
18.0 g of Ebecryl® 645 (modified diacrylate of Bisphenol A epoxy resin diluted with 25% of TPGDA, from UCB, Belgium)
13.0 g of HDDA (1,6-hexanediol diacrylate)
10.0 g of Ebecryl® 220 (urethane acrylate from UCB, Belgium)
1.3 g of Ebecryl® 168 (methacrylated acidic compound from UCB, Belgium)
0.7 g of DC 57 (Leveling agent)
11.1 g Irgalit blue GLO (Cu-phthalocyanine pigment from Ciba Specialty Chemicals)
(§4) The above components are grounded down to a stock paste. Portions of the stock paste are mixed with the photoinitiators indicated in the table (% by weight on the stock paste). The solubility of the initiator in the formulation is rated as good (+), acceptable (±) or bad (−) and the results shown in Table 2.

Data set [3] in a line: Curing of a blue flexo printing ink on a white polyethylene foil (maximum rate of passage, 120 W/cm mercury lamp). The conditions noted are these: conc 6.0 %, blue flexo ink on corona treated white polyethylene foil. As to the method:
Curing of a Blue Flexo Printing Ink on a White Polyethylene Foil
as §3, §4
The blue printing ink thus obtained is applied with […] 1.5 μm thickness on a corona treated white polyethylene foil using a Prüfbau laboratory printing equipment. The samples are exposed in an irradiation apparatus with a 120 W/cm mercury lamp (IST). The rate of passage of the sample through the irradiation apparatus is thereby increased continuously until adequate curing no longer occurs. The adhesion of the cured film to the foil is measure by the Tesa tape test.

Data set [4] is described as follows: Solubility of the initiator in the blue offset printing ink formulation. Details: key: good (+); acceptable (±); bad (−). The class given is physicochemical. As to the method: as §1
18.3 g of Ebecryl® 1608 (UCB, Belgium)
18.3 g of Ebecryl® 657 (polyester acrylate from UCB, Belgium)
20.0 g of Ebecryl® 220 (urethane acrylate from UCB, Belgium)
20.9 g of Ebecryl® 150 (bisphenol A derivative diacrylate from UCB, Belgium)
22.5 g Irgalit blue GLO (Cu-phthalocyanine pigment from Ciba Specialty Chemicals)
as §2

[5] abbreviates: photoinitiator conc 3.0 % by weight on the stock paste.
[6] abbreviates: photoinitiator conc 4.0 % by weight on the stock paste.

The structures appear in SMILES notation.

Regarding `CCCC(CC)(C(=O)c1ccc(NCCO)cc1)N(C)C` (stereo not shown), the melting point fell in the range of 74 to 77 °C.
In turn, `CCC(Cc1ccccc1)(C(=O)c1ccc(NCCO)cc1)N(C)C` (stereo not shown) [Example 1, 2-benzyl-1-[4-(2-hydroxyethylamino)phenyl]-2-dimethylamino-1-butanone] yielded a melting point of 109 to 111 °C. In addition, the “efficiency as a photoinitiator compared with the reference compounds” value in data set [1] (blue offset printing ink, versus Irgacure 369 and Irgacure 907) is listed as “more efficient as a photoinitiator than the reference compounds”. In data set [1] (conc 3.0 %), the “curing rate (m/min) for surface cure” value is 100 m/min and the “curing rate (m/min) for through cure” value is on record as 120 m/min. Moreover, in data set [1] (conc 4.0 %), the “curing rate (m/min) for surface cure” value is given as 140 m/min and the “curing rate (m/min) for through cure” value is reported as 170 m/min. The solubility result in data set [2] is given as “+”. In data set [3], the “curing rate (m/min) for surface cure” value is reported as 200 m/min and the “curing rate (m/min) for through cure” value is given as 40 m/min. For the same compound, the solubility entry in data set [4] (setting [5]) is reported as “+”. For the same compound, the solubility result in data set [4] (setting [6]) is “+”.
In the case of `CC(C)(C(=O)c1ccc(NCCO)cc1)N1CCOCC1` [Example 6, 1-[4-(2-hydroxyethyamino)phenyl]-2-methyl-2-(morpholin-4-yl)-1-propanone], the melting point was in the range of 77 to 78 °C.
Consider `CCC(Cc1ccccc1)(C(=O)c1ccc(N2CCOCC2)cc1)N(C)C` (stereo not shown) [Irgacure 369, 2-benzyl-2-(dimethylamino)-1-[4-(4-morpholinyl)phenyl]-1-butanone], for which the “curing rate (m/min) for surface cure” value stood at 70 m/min in data set [1] (conc 3.0 %), 90 m/min in data set [1] (conc 4.0 %) and 170 m/min in data set [3]. Besides, the “curing rate (m/min) for through cure” value in data set [1] (conc 3.0 %) worked out at 110 m/min; in data set [1] (conc 4.0 %) it was 130 m/min; in data set [3], 90 m/min. The solubility result is on record as “+” in data set [2], “−” in data set [4] (setting [5]) and “−” in data set [4] (setting [6]).
As to `CSc1ccc(C(=O)C(C)(C)N2CCOCC2)cc1` [Irgacure 907], in data set [1] (conc 4.0 %), the “curing rate (m/min) for surface cure” value is reported as 80 m/min and the “curing rate (m/min) for through cure” value is recorded as 90 m/min. For the same compound, the solubility entry in data set [4] (setting [6]) is recorded as “+”.

(Values after US7732504B2, “Functionalized photoinitiators” (Ciba Specialty Chemicals Corporation, priority 2004, dated 2010).)
